Measured values as given in PubChem BioAssay (NCI).
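Where inhibition never reached the appropriate level, the endpoint shown equals the highest concentration tested. Otherwise, values were interpolated linearly from a five-concentration, 48-hour dose response in 96-well plates. GI50 = concentration required for 50% inhibition of growth. Definition used: TGI = concentration required for complete inhibition of growth.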

Experiments:
Experiment in all cases: NCI anticancer screen, dose series, 48 h
A498 renal = tested on: A498 renal
HT29 colon = tested on: HT29 colon
MDA-MB-231 breast = tested on: MDA-MB-231 breast
NCI-H23 lung = tested on: NCI-H23 lung
SF-268 CNS = tested on: SF-268 CNS
SK-MEL-5 melanoma = tested on: SK-MEL-5 melanoma
SNB-19 CNS = tested on: SNB-19 CNS
SW-620 colon = tested on: SW-620 colon
BT-549 breast = tested on: BT-549 breast
HOP-62 NSCLC = tested on: HOP-62 NSCLC

Row | Structure (SMILES) | TGI (A498 renal) [µM] | TGI (HT29 colon) [µM] | TGI (MDA-MB-231 breast) [µM] | TGI (NCI-H23 lung) [µM] | TGI (SF-268 CNS) [µM] | TGI (SK-MEL-5 melanoma) [µM] | TGI (SNB-19 CNS) [µM] | TGI (SW-620 colon) [µM] | TGI (BT-549 breast) [µM] | TGI (HOP-62 NSCLC) [µM] | GI50 (A498 renal) [µM] | GI50 (BT-549 breast) [µM] | GI50 (HT29 colon) [µM] | GI50 (MDA-MB-231 breast) [µM] | GI50 (NCI-H23 lung) [µM] | GI50 (SF-268 CNS) [µM] | GI50 (SK-MEL-5 melanoma) [µM] | GI50 (SNB-19 CNS) [µM] | GI50 (SW-620 colon) [µM]
1 | O=C(NC(=S)NC(=O)c1cc(O)c(O)c(O)c1)c1cc(O)c(O)c(O)c1 | > 100 | 65.5 | 74.1 | 55.4 | > 100 | 57.7 | 52.8 | > 100 | – | – | – | – | – | – | – | – | – | – | –
2 | O=C(Nc1ccccc1)c1cc(S(=O)(=O)N2CCNNC2=O)c(S)cc1Cl | > 100 | – | 95 | – | > 100 | > 100 | > 100 | > 100 | > 100 | – | – | – | – | – | – | – | – | – | –
3 | COc1ccc(/C=C/C2=NN(c3cccc(S(=O)(=O)O)c3)C3(C2)SCC(=O)N3c2nc3ccccc3s2)cc1 (stereo not given) | > 100 | > 100 | > 100 | > 100 | > 100 | > 100 | > 100 | > 100 | > 100 | – | – | – | – | – | – | – | – | – | –
4 | Cc1nc2c(=S)n(C)ncc2[nH]1 | > 100 | > 100 | > 100 | > 100 | – | > 100 | – | > 100 | > 100 | > 100 | – | – | – | – | – | – | – | – | –
5 | Cc1cc(=O)[nH]c(NN2C(Cl)C(=O)C2c2cccc(Cl)c2)n1 (stereo not given) | – | 76.8 | – | 58.2 | 98.1 | 34.2 | 92.6 | > 100 | – | > 100 | – | – | – | – | – | – | – | – | –
6 | O=C(OCC(Cl)(Cl)Cl)O[C@@H]1CCCC1(c1ccccc1)c1ccccc1 | – | > 100 | > 100 | > 100 | > 100 | > 100 | > 100 | > 100 | > 100 | > 100 | – | – | – | – | – | – | – | – | –
7 | COc1ccc(C(OCC2OC(n3ccc(NC(=O)c4ccccc4)nc3=O)CC2OP2(=S)SCCS2)(c2ccccc2)c2ccc(OC)cc2)cc1 (stereo not given) | – | 69.7 | > 100 | > 100 | 44.1 | 43.9 | 86.4 | 44 | 53.6 | 43.9 | – | – | – | – | – | – | – | – | –
8 | O=C1Nc2ccccc2Nc2ccncc21 | > 100 | > 100 | – | > 100 | > 100 | > 100 | > 100 | > 100 | – | > 100 | – | – | – | – | – | – | – | – | –
9 | Cc1ccccc1NC(=O)Cc1csc2[n+]1C(=O)/C(=C/c1ccc([N+](=O)[O-])cc1)S2 | – | > 100 | > 100 | 84.3 | – | > 100 | > 100 | > 100 | 38.6 | > 100 | – | – | – | – | – | – | – | – | –
10 | N#C[C@H](c1nc2ccccc2s1)c1nc2ccccc2nc1Cl | > 100 | > 100 | > 100 | 32.3 | – | > 100 | > 100 | > 100 | 21.4 | 77.1 | – | – | – | – | – | – | – | – | –
11 | CC1=NC(=Cc2ccc([N+](=O)[O-])cc2)C(=O)N1n1c(-c2ccccc2)nc2ccccc2c1=O | – | > 100 | > 100 | 81.2 | > 100 | > 100 | > 100 | > 100 | > 100 | > 100 | – | – | – | – | – | – | – | – | –
12 | CC(C)(C)N(Cc1ccc2c(c1)OCO2)C(=O)/C=C\Sc1ccccc1 | > 100 | > 100 | > 100 | > 100 | – | > 100 | > 100 | > 100 | > 100 | > 100 | – | – | – | – | – | – | – | – | –
13 | COc1ccc2c(OCc3nnc4ccc(-c5ccccc5)nn34)ccnc2c1 | > 100 | > 100 | > 100 | > 100 | > 100 | > 100 | > 100 | > 100 | > 100 | – | > 100 | > 100 | > 100 | > 20.3 | > 100 | > 100 | > 100 | > 100 | > 100
14 | Cc1nc2ccccc2c(/C=C/c2ccc(Cl)cc2)c1C(=O)/C=C/c1ccc(Cl)cc1 | – | > 100 | – | – | – | 3 | 2.94 | – | – | – | – | – | 0.739 | – | – | – | 1.62 | 1.57 | –
15 | Oc1[nH]c2ccccc2c1/C=c1/cc2c(c(-c3ccc(F)cc3)n1)=Nc1ccccc1-2 | 1.85 | 1.43 | 2.39 | 3.11 | 9.26 | 3.06 | 32.6 | 2.43 | – | – | 0.309 | – | 0.384 | 0.609 | 1.16 | 1.01 | 1.41 | 1.43 | 0.438
16 | O=C(NNc1nc(-c2ccccc2)cs1)C(F)(F)F | 88.2 | > 100 | > 100 | > 100 | > 100 | > 100 | > 100 | > 100 | – | > 100 | – | – | – | – | – | – | – | – | –
17 | COc1ccc(C(C2=C(O)COC2=O)c2cc3c(cc2O)OCO3)cc1OC (stereo not given) | > 100 | > 100 | > 100 | – | > 100 | > 100 | > 100 | > 100 | > 100 | > 100 | – | – | – | – | – | – | – | – | –
18 | Clc1ccc(OCc2nn3c(CCc4nnc5sc(COc6ccc(Cl)cc6)nn45)nnc3s2)cc1 | 42.8 | > 100 | 61.8 | 72.1 | > 100 | 23.7 | – | > 100 | – | > 100 | – | – | – | – | – | – | – | – | –
19 | CSc1c(C(=O)Nc2ccc(Cl)cc2)c(N)n(N)c(=O)c1C#N | > 100 | > 100 | > 100 | > 100 | > 100 | > 100 | > 100 | > 100 | > 100 | – | – | – | – | – | – | – | – | – | –
20 | CCOC(=O)N(c1ccccc1)N(CC)C(=O)/C(C)=N/Nc1ccc([N+](=O)[O-])cc1 | 28 | 31 | – | 36.1 | 34.1 | – | 34.9 | 36.7 | – | 30 | – | – | – | – | – | – | – | – | –
21 | CC(=O)Oc1ccc(/C=C/C(=O)O[C@@H](C(=O)O)[C@@H](OC(=O)/C=C/c2ccc(OC(C)=O)c(OC(C)=O)c2)C(=O)O)cc1OC(C)=O | > 100 | – | > 100 | > 100 | > 100 | > 100 | > 100 | > 100 | > 100 | > 100 | – | – | – | – | – | – | – | – | –
22 | CC(C)C1N(C)c2ccc(Cl)cc2[C@H]2c3ccccc3CCN12 (stereo not given in full) | > 100 | 90.7 | 96.2 | > 100 | > 100 | – | > 100 | > 100 | > 100 | > 100 | – | – | – | – | – | – | – | – | –
